Measurements from paper PMC6920806, “Synthesis of β-D-galactopyranoside-Presenting Glycoclusters, Investigation of Their Interactions with Pseudomonas aeruginosa Lectin A (PA-IL) and Evaluation of Their Anti-Adhesion Potential” (Biomolecules, 2019).
Values after ≈ are worked out from the molar mass of the structure shown.

How the values were obtained:
[1] = system: adhesion of P. aeruginosa (ST 1763) to epithelial bronchial cells (CuFi-1); parameters: method as in PMID 31216664; conditions: previous study; cited from earlier work
lectin PA-IL [2] = target: T1, lectin PA-IL (Pseudomonas aeruginosa, UniProt Q05097); test: Isothermal titration microcalorimetry (ITC); format: binding
T1 construct: made in house; host or cells: Escherichia coli BL21(DE3)
Protocol: All the experiments were performed on MicroCal iTC200 (Malvern Instruments, Malvern, UK) at 25 °C. The freeze-dried lectin PA-IL was dissolved in 0.1 M Tris/HCl, 500 μM CaCl2, pH = 7.5, and equilibrated at room temperature for 1 h before ITC measurements. Multivalent galactosylated compounds 4, 7, 10 and 13 were diluted in the same buffer and used in 0.25–0.5 mM concentrations. Aliquots of 2 µL of the compounds were added automatically to the 0.078 mM or 0.088 mM PA-IL in the calorimeter cell. Blank experiments (injections of compounds to the buffer) were performed and heat responses were subtracted. Integrated heat effects were analyzed by global fitting of data obtained from three independent titrations for each tested compound by non-linear regression using a single site-binding model (Microcal Origin 7, Malvern Instruments, Malvern, UK). Fitted data yielded the association constant (Ka) and the enthalpy of binding (ΔH). Other thermodynamic parameters, i.e., changes in free energy (ΔG) and entropy (ΔS), were calculated from the following equation: ΔG = ΔH − TΔS = −RT ln Ka, where T is the absolute temperature and R = 8.314 J mol^−1 K^−1. The monosaccharide D-galactose was used as a control; 4 mM D-galactose was added to the 0.147 mM PA-IL in the calorimeter cell. Two titration experiments were performed and the heat responses were processed and evaluated as mentioned above.

lectin PA-IL [3] = target: T1, lectin PA-IL; test: Hemagglutination inhibition assay (HIA) with microscope detection; format: biochemical
Protocol: PA-IL was dissolved in the buffer with calcium ions suitable for the activity of the lectin (20 mM Tris/HCl, 150 mM NaCl, 5 mM CaCl2, pH = 7.5) to the concentration 0.25 mg mL^−1. Lectin was mixed with carbohydrate inhibitors serially diluted in the buffer in a 5 µL:5 µL ratio. Therefore, the final (working) concentration of the lectin was 0.125 mg mL^−1. A total of 10 µL of 20% papain-treated, azid-stabilized red blood cells B^+ in the buffer was then added, and the mixture was thoroughly mixed and incubated for 5 min at room temperature. After incubation, the mixture was again mixed, transferred to a microscope slide, and examined. The examination was conducted using the Levenhuk D2L NG Digital Microscope (Levenhuk, Tampa, FL, USA). Images were obtained with a Levenhuk D2L digital camera (Levenhuk, Tampa, FL, USA) using the software ToupView for Windows (Version 3.7, Levenhuk, Tampa, FL, USA). The positive (experiment without inhibitor) and negative control (experiment without lectin) were prepared and processed in the same way using the appropriate volume of dissolving buffer instead of the omitted components. The minimal inhibitory concentration (MIC) of the inhibitor able to inhibit hemagglutination was determined and compared with the standard (D-galactose) and the potency of the inhibitor was calculated (MIC of the standard/MIC of the inhibitor).

lectin PA-IL [4] = target: T1, lectin PA-IL; test: SPR inhibition of PA-IL binding to immobilized D-galactosides
Protocol: Surface plasmon resonance (SPR) experiments were performed on a BIAcore T200 instrument (GE Healthcare, Chicago, IL, USA) at 25 °C, using HBST running buffer (10 mM HEPES, 150 mM NaCl, 0.5 mM CaCl2, 0.05% Tween 20, pH = 7). A CM5 sensor chip (GE Healthcare, Chicago, IL, USA) covered with a carboxymethylated dextran matrix was used for ligand immobilization. The sensor chip surface was activated with N-ethyl-N-(3-dimethylaminopropyl)carbodiimide/N-hydroxysuccinimide solution and then coated with streptavidin (Sigma-Aldrich, St. Louis, MO, USA) in 10 mM acetate pH = 5.0 according to the manufacturer’s standard protocol to a final response of 7000 RU. Unreacted groups were blocked with 1 M ethanolamine-HCl, pH = 8.5. 0.5 mM biotinylated carbohydrate (1:1 mixture of biotin-α-D-galactoside and biotin-β-D-galactoside for measuring channel and α-L-fucoside for blank channel, all Lectinity, Moskow, Russia) was injected into a particular channel at a flow rate of 5 μL min^−1.
In the experimental setup, SPR inhibition measurements were carried out simultaneously on both measuring and blank channels at a flow rate of 5 µL min^−1. […] The response of the blank channel was subtracted from the response of lectin bound to the galactose-modified surface at equilibrium and plotted against the concentration of inhibitor in order to determine IC50 (concentration of inhibitor resulting in 50% inhibition of binding). As IC50 is not a constant and depends on the experimental set-up, a parameter called potency was used for characterization. The potency of a tested inhibitor is the ratio of IC50 of a chosen standard inhibitor (in this case, D-galactose) and the inhibitor in question. Pure lectin PA-IL was used as a control (0% inhibition).

lectin PA-IL [5] = target: T1, lectin PA-IL; test: Analytical ultracentrifugation (sedimentation velocity), cross-linking of lectin; conditions: protein:ligand ratios 1:0.1, 1:1, 1:10
Protocol: Analytical ultracentrifugation experiments were performed using ProteomeLab XL-I analytical ultracentrifuge (Beckman Coulter, Indianapolis, IN, USA) equipped with an An-60 Ti rotor. Sedimentation velocity experiments were conducted in titanium double-sector centerpiece cells (Nanolytics Instruments, Potsdam, Germany) loaded with 390 µL of both protein sample and reference solution (PBS buffer, pH = 7.5). PA-IL without the added ligand and PA-IL samples pre-incubated with different concentrations of galactosylated dendrimers 4, 7, 10 and 13 and D-galactose (protein:ligand ratios of 1:0.1, 1:1 and 1:10) were analyzed by the sedimentation velocity experiment. All the measurements were performed in PBS buffer with 22 µM PA-IL. Data were collected using absorbance optics at 25 °C at a rotor speed of 48,000 rpm. Scans were collected at 280 nm (or alternatively at 294 nm to decrease the absorbance signal of the samples containing excess of the UV-absorbing ligands 4 and 10) at 5-min intervals and 0.003 cm spatial resolution in continuous scan mode. The partial specific volume of the protein and the solvent density and viscosity were calculated from the amino acid sequence and buffer composition, respectively, using the software Sednterp (http://bitcwiki.sr.unh.edu). The data were analyzed with the continuous c(s) distribution model implemented in the program Sedfit 15.01b. For the regularization procedure, a confidence level of 0.95 was used. The plots of c(s) distributions were created in GUSSI 1.3.1 [28].

T1 sequence (Q05097 2-122): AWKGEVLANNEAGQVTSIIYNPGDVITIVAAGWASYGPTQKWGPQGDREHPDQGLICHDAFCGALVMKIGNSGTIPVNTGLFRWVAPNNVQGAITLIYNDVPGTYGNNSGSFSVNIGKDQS

| Compound | most effective concentration [1] [µM] | Kd (lectin PA-IL [2]) [µM] | ΔH (lectin PA-IL [2]; ITC, 25 °C) [kcal/mol] | −T ΔS (lectin PA-IL [2]; ITC, 25 °C, calculated from ΔG = ΔH − TΔS) [kcal/mol] | ΔG (lectin PA-IL [2]; ITC, 25 °C, calculated from −RT ln Ka) [kcal/mol] | n (stoichiometry) (lectin PA-IL [2]; ITC, 25 °C, single site-binding model) | Potency (MIC of standard/MIC of inhibitor) (lectin PA-IL [3]; HIA, standard D-galactose) | β (Potency/Valency) (lectin PA-IL [3]; HIA, standard D-galactose) | MIC (minimal inhibitory concentration) (lectin PA-IL [3]; inhibition of hemagglutination caused by PA-IL (0.125 mg mL−1), papain-treated red blood cells B+) [mM] | IC50 (lectin PA-IL [4]) [µM] | Potency (IC50 of standard/IC50 of inhibitor) (lectin PA-IL [4]; SPR, standard D-galactose) | β (Potency/Valency) (lectin PA-IL [4]; SPR, standard D-galactose) | cross-linking of PA-IL (formation of the 6.4 S particle) (lectin PA-IL [5]) |
| --- | --- | --- | --- | --- | --- | --- | --- | --- | --- | --- | --- | --- | --- |
| C[C@@H]1O[C@@H](OCc2cn(CCOCCOCCOCCn3cc(COCC(COCc4cn(CCOCCOCCOCCn5cc(CO[C@@H]6O[C@@H](C)[C@@H](O)[C@@H](O)[C@@H]6O)nn5)nn4)(COCc4cn(CCOCCOCCOCCn5cc(CO[C@@H]6O[C@@H](C)[C@@H](O)[C@@H](O)[C@@H]6O)nn5)nn4)COCc4cn(CCOCCOCCOCCn5cc(CO[C@@H]6O[C@@H](C)[C@@H](O)[C@@H](O)[C@@H]6O)nn5)nn4)nn3)nn2)[C@@H](O)[C@H](O)[C@@H]1O [Compound 14] | 250 |  |  |  |  |  |  |  |  |  |  |  |  |
| O=C[C@H](O)[C@@H](O)[C@@H](O)[C@H](O)CO [D-galactose, reference compound] |  | 147 | -9.03 ± 0.698 | 3.8 ± 0.507 | -5.23 ± 0.294 | 0.78 ± 0.05 | 1 | 1 | 6.25 (≈ 1130 µg/mL) | 187 | 1 | 1 | negligible effect |
